Square brackets hold non-standard residues; d marks the D form. Side chains are listed from the residue outwards. Peptide text beside a SMILES is read from it. Oic = O=C(O)[C@@H]1C[C@@H]2CCCC[C@@H]2N1; Hyp = O=C(O)[C@@H]1C[C@@H](O)CN1; dTic = O=C(O)[C@H]1Cc2ccccc2CN1; 2Thi = N[C@@H](Cc1cccs1)C(=O)O; Dap = NC[C@H](N)C(=O)O
Tests used:
Mu-type opioid receptor = Mu-type opioid receptor (Rattus norvegicus, UniProt P33535); assay: Displacement of [3H]DAMGO from rat mu opiod receptor
B2 bradykinin receptor [1] = biological target: T1, B2 bradykinin receptor (Rattus norvegicus, UniProt P25023); assay: Displacement of [3H]BK from B2R in rat brain membranes by liquid scintillation counting in based radioligand competition assay; type: cell membranes, Membrane
T1 sequence (P25023 whole entry): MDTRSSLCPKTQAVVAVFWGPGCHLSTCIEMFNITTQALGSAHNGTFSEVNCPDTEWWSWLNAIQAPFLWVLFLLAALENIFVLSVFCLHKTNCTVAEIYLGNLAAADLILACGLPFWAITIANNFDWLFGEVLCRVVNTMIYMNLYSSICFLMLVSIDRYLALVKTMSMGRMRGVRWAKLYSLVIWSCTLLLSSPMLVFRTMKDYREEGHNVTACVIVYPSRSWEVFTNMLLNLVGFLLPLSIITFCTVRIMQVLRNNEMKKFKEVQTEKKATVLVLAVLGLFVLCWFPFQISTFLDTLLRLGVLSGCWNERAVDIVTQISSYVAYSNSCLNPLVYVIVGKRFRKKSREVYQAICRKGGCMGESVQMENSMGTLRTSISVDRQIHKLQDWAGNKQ

B2 bradykinin receptor [2] = biological target: T2, B2 bradykinin receptor (Cavia porcellus, UniProt O70526); assay: Antagonist activity against B2R in Hartley guinea pig ileum assessed as reduction in electrically-induced response; type: tissue-based
T2 sequence (O70526 whole entry): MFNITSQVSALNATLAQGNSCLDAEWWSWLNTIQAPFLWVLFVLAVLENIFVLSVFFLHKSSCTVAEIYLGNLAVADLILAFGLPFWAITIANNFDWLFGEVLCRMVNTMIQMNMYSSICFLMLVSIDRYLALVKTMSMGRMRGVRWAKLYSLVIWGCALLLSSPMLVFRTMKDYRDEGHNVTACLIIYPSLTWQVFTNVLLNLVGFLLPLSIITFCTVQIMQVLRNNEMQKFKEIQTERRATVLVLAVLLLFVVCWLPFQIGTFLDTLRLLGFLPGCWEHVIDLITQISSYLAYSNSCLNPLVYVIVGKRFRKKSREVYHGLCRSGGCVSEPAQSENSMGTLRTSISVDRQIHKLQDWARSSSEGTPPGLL

[3] = biological target: Delta-type opioid receptor (Homo sapiens, UniProt P41143); assay: Displacement of [3H]DPDPE from human delta opiod receptor
B2 bradykinin receptor [4] = biological target: T2, B2 bradykinin receptor; assay: Binding affinity to B2R in guinea pig ileum membranes; type: cell membranes, Membrane

Delta-type opioid receptor, sequence (P41143 whole entry): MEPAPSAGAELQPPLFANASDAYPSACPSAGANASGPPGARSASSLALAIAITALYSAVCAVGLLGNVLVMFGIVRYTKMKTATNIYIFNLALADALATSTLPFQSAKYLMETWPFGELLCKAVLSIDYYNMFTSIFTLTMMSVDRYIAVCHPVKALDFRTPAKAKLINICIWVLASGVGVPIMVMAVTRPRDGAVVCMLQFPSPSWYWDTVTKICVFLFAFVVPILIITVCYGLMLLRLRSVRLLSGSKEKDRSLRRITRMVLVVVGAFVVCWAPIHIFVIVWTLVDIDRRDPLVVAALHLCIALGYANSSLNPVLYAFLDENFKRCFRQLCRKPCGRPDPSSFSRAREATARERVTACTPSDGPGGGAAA
Mu-type opioid receptor, sequence (P33535 whole entry): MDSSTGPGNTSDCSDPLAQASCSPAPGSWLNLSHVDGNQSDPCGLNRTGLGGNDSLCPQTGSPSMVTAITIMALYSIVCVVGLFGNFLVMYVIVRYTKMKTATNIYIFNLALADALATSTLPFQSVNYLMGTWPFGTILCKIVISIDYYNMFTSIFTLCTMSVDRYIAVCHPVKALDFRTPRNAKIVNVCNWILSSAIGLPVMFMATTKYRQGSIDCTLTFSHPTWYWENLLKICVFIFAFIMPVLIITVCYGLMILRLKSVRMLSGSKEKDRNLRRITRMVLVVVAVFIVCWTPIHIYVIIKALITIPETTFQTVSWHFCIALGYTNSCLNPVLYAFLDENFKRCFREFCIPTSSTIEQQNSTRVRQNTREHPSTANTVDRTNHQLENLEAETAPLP

| SMILES | IC50 (Mu-type opioid receptor) [nM] | Ki (Mu-type opioid receptor) [nM] | Ki (B2 bradykinin receptor [1]) [nM] | Ki [3] [nM] | IC50 [3] [nM] | also measured |
| --- | --- | --- | --- | --- | --- | --- |
| C[C@@H](NC(=O)[C@@H](N)Cc1ccc(O)cc1)C(=O)NCC(=O)N[C@@H](Cc1ccccc1)C(=O)NCCCCCCCC(=O)NC[C@H](N)C(=O)N[C@H](CCCNC(=N)N)C(=O)N[C@@H](CCCNC(=N)N)C(=O)N1CCC[C@H]1C(=O)N1C[C@H](O)C[C@H]1C(=O)NCC(=O)N[C@@H](Cc1cccs1)C(=O)N[C@@H](CO)C(=O)N1Cc2ccccc2C[C@@H]1C(=O)N1[C@H](C(=O)N[C@@H](CCCNC(=N)N)C(=O)O)C[C@@H]2CCCC[C@@H]21 | 0.813 | 0.3 |  |  |  |  |
| N=C(N)NCCC[C@H](NC(=O)[C@@H]1C[C@@H]2CCCC[C@@H]2N1C(=O)[C@H]1Cc2ccccc2CN1C(=O)[C@H](CO)NC(=O)[C@H](Cc1cccs1)NC(=O)CNC(=O)[C@@H]1C[C@@H](O)CN1C(=O)[C@@H]1CCCN1C(=O)[C@H](CCCNC(=N)N)NC(=O)[C@@H](CCCNC(=N)N)NC(=O)[C@H](Cc1ccccc1)NC(=O)[C@H](Cc1ccccc1)NC(=O)[C@@H]1CCCN1C(=O)[C@@H](N)Cc1ccc(O)cc1)C(=O)O |  | 480 | > 10000 | > 10000 |  | IC50 (B2 bradykinin receptor [2]): 1.9 nM; pIC50 (Mu-type opioid receptor): 5.97 |
| CSCC[C@H](NC(=O)[C@H](Cc1ccccc1)NC(=O)[C@@H](C)NC(=O)[C@@H](N)Cc1ccc(O)cc1)C(=O)N[C@H](CCCNC(=N)N)C(=O)N[C@@H](CCCNC(=N)N)C(=O)N1CCC[C@H]1C(=O)N1C[C@H](O)C[C@H]1C(=O)NCC(=O)N[C@@H](Cc1cccs1)C(=O)N[C@@H](CO)C(=O)N1Cc2ccccc2C[C@@H]1C(=O)N1[C@H](C(=O)N[C@@H](CCCNC(=N)N)C(=O)O)C[C@@H]2CCCC[C@@H]21 | 155 | 70 | 5200 | 6900 | 17000 | IC50 (B2 bradykinin receptor [2]): 1.8 nM |
| C[C@@H](NC(=O)[C@@H](N)Cc1ccc(O)cc1)C(=O)NCC(=O)N[C@@H](Cc1ccccc1)C(=O)NC[C@H](N)C(=O)N[C@H](CCCNC(=N)N)C(=O)N[C@@H](CCCNC(=N)N)C(=O)N1CCC[C@H]1C(=O)N1C[C@H](O)C[C@H]1C(=O)NCC(=O)N[C@@H](Cc1cccs1)C(=O)N[C@@H](CO)C(=O)N1Cc2ccccc2C[C@@H]1C(=O)N1[C@H](C(=O)N[C@@H](CCCNC(=N)N)C(=O)O)C[C@@H]2CCCC[C@@H]21 | 1.41 | 0.6 |  |  |  |  |
| N=C(N)NCCC[C@H](NC(=O)[C@@H]1C[C@@H]2CCCC[C@@H]2N1C(=O)[C@H]1Cc2ccccc2CN1C(=O)[C@H](CO)NC(=O)[C@H](Cc1cccs1)NC(=O)CNC(=O)[C@@H]1C[C@@H](O)CN1C(=O)[C@@H]1CCCN1C(=O)[C@H](CCCNC(=N)N)NC(=O)[C@@H](CCCNC(=N)N)NC(=O)[C@H](Cc1ccccc1)NC(=O)[C@@H]1CCCN1C(=O)[C@@H](N)Cc1ccc(O)cc1)C(=O)O |  | 2300 | > 10000 | > 10000 |  | pIC50 (Mu-type opioid receptor): 5.29 |
| C[C@@H](NC(=O)[C@@H](N)Cc1ccc(O)cc1)C(=O)NCC(=O)N[C@@H](Cc1ccccc1)C(=O)NCCCCCCCC(=O)N[C@H](CCCNC(=N)N)C(=O)N[C@@H](CCCNC(=N)N)C(=O)N1CCC[C@H]1C(=O)N1C[C@H](O)C[C@H]1C(=O)NCC(=O)N[C@@H](Cc1cccs1)C(=O)N[C@@H](CO)C(=O)N1Cc2ccccc2C[C@@H]1C(=O)N1[C@H](C(=O)N[C@@H](CCCNC(=N)N)C(=O)O)C[C@@H]2CCCC[C@@H]21 | 1.23 |  |  |  | 4.68 |  |
| C[C@@H](NC(=O)[C@@H](N)Cc1ccc(O)cc1)C(=O)NCC(=O)N[C@@H](Cc1ccccc1)C(=O)N[C@H](CCCNC(=N)N)C(=O)N[C@@H](CCCNC(=N)N)C(=O)N1CCC[C@H]1C(=O)N1C[C@H](O)C[C@H]1C(=O)NCC(=O)N[C@@H](Cc1cccs1)C(=O)N[C@@H](CO)C(=O)N1Cc2ccccc2C[C@@H]1C(=O)N1[C@H](C(=O)N[C@@H](CCCNC(=N)N)C(=O)O)C[C@@H]2CCCC[C@@H]21 | 22.9 |  | > 10000 |  | 4170 | IC50 (B2 bradykinin receptor [2]): 1.7 nM |
| C[C@@H](NC(=O)[C@@H](N)Cc1ccc(O)cc1)C(=O)NCC(=O)N[C@@H](Cc1ccccc1)C(=O)NC[C@H](NC(=O)[C@H](Cc1cccs1)NC(=O)CNC(=O)[C@@H]1C[C@@H](O)CN1C(=O)[C@@H]1CCCN1C(=O)[C@H](CCCNC(=N)N)NC(=O)[C@H](N)CCCNC(=N)N)C(=O)N1Cc2ccccc2C[C@@H]1C(=O)N1[C@H](C(=O)N[C@@H](CCCNC(=N)N)C(=O)O)C[C@@H]2CCCC[C@@H]21 (H-[dR]RP[Hyp]G[2Thi][Dap]([Phe-Gly-dA-Tyr])[dTic][Oic]R-OH) | 15.5 |  |  |  | 0.603 |  |
| C[C@@H](NC(=O)[C@@H](N)Cc1ccc(O)cc1)C(=O)NCC(=O)N[C@@H](Cc1ccccc1)C(=O)NC[C@H](NC(=O)[C@@H]1CCCN1C(=O)[C@H](CCCNC(=N)N)NC(=O)[C@H](N)CCCNC(=N)N)C(=O)NCC(=O)N[C@@H](Cc1cccs1)C(=O)N[C@@H](CO)C(=O)N1Cc2ccccc2C[C@@H]1C(=O)N1[C@H](C(=O)N[C@@H](CCCNC(=N)N)C(=O)O)C[C@@H]2CCCC[C@@H]21 | 4.79 |  |  |  | 6.76 |  |
| C[C@@H](NC(=O)[C@@H](N)Cc1ccc(O)cc1)C(=O)NCC(=O)N[C@@H](Cc1ccccc1)C(=O)NCCC(=O)N[C@H](CCCNC(=N)N)C(=O)N[C@@H](CCCNC(=N)N)C(=O)N1CCC[C@H]1C(=O)N1C[C@H](O)C[C@H]1C(=O)NCC(=O)N[C@@H](Cc1cccs1)C(=O)N[C@@H](CO)C(=O)N1Cc2ccccc2C[C@@H]1C(=O)N1[C@H](C(=O)N[C@@H](CCCNC(=N)N)C(=O)O)C[C@@H]2CCCC[C@@H]21 | 3.09 |  |  |  | 91.2 |  |
| NC(N)=NCCC[C@@H](N)C(=O)N[C@@H](CCCN=C(N)N)C(=O)N1CCC[C@H]1C(=O)N1C[C@H](O)C[C@H]1C(=O)NCC(=O)N[C@@H](Cc1cccs1)C(=O)N[C@@H](CO)C(=O)N1Cc2ccccc2C[C@@H]1C(=O)N1[C@H](C(=O)N[C@@H](CCCN=C(N)N)C(=O)O)C[C@@H]2CCCC[C@@H]21 |  |  | > 10000 |  |  | Ki (B2 bradykinin receptor [4]): 1 nM |
| C[C@@H](NC(=O)[C@@H](N)Cc1ccc(O)cc1)C(=O)NCC(=O)N[C@@H](Cc1ccccc1)C(=O)NC[C@H](N)C(=O)NCCC(=O)N[C@H](CCCNC(=N)N)C(=O)N[C@@H](CCCNC(=N)N)C(=O)N1CCC[C@H]1C(=O)N1C[C@H](O)C[C@H]1C(=O)NCC(=O)N[C@@H](Cc1cccs1)C(=O)N[C@@H](CO)C(=O)N1Cc2ccccc2C[C@@H]1C(=O)N1[C@H](C(=O)N[C@@H](CCCNC(=N)N)C(=O)O)C[C@@H]2CCCC[C@@H]21 |  | 0.5 |  | 7 |  | pIC50 [3]: 7.77; pIC50 (Mu-type opioid receptor): 8.94 |

— ChEMBL document CHEMBL3616445, “Design, synthesis and biological evaluation of multifunctional ligands targeting opioid and bradykinin 2 receptors” (Bioorg Med Chem Lett, 2015)
